Test results from patent publication US6613718B2, “Aryl ether derivatives and processes for their preparation and herbicidal and desiccant compositions containing them” (Ishihara Sangyo Kaisha, Ltd., priority 2001, dated 2003).

Assays:
Format in all cases: in vivo
Conditions in all cases: 14 days after application
[1] = system: soybean (Glycine max L., var. Pella 86, SOY); assay: Post-emerge greenhouse screening, crop safety (phytotoxicity rating)
Description: (§1) A standard greenhouse herbicide activity screening system was used to evaluate the herbicidal efficacy and crop safety of these test compounds. Seven broadleaf weed species including redroot pigweed (Amaranthus retroflexus, AMARE), velvetleaf (Abutilon theophrasti, ABUTH), sicklepod (Cassia obtusifolia, CASOB), ivyleaf morningglory (Ipomoea hederacea, IPOHE), lambsquarters (Chenopodium album, CHEAL), common ragweed (Ambrosia artemisiifolia L., AMBEL), and cocklebur (Xanthium strumarium, XANST) were used as test species. Four grass weed species including green foxtail (Setaria viridis, SETVI), barnyardgrass (Echinochloa crus-galli, ECHCG), johnsongrass (Sorghum halepense, SORHA), and large crabgrass (Digitaria sanguinalis, DIGSA) were also used. In addition, three crop species, field corn (Zea mays L., var. Dekalb 535, CORN), soybean (Glycine max L., var. Pella 86, SOY), and upland rice (Oryza sp., var.Tebonnet, RICE) were included.
(§2) All plants were grown in 10 cm square plastic pots which were filled with a sandy loam soil mix. For pre-emerge tests, seeds were planted one day prior to application of the test compounds. For post-emerge tests, seeds were planted 8-21 days prior to the test to allow emergence and good foliage development prior to application of the test substances. At the time of the post-emerge application, plants of all species were usually at the 2-3 leaf stage of development.
(§3) All test compounds were dissolved in acetone and applied to the test units in a volume of 187 1/ha. Test materials were applied at rates ranging from 15 g ai/ha to 1000 g ai/ha using a track sprayer equipped with a TJ8001E even flow flat fan spray nozzle. Plants were arranged on a shelf so that the top of the canopy (post-emerge) or top of the soil surface (pre-emerge) was 40-45 cm below the nozzle. Pressurized air was used to force the test solution through the nozzle as it was mechanically advanced (via electrically driven chain drive) over the top of all test plants/pots. This application simulates a typical commercial field herbicide application.
(§4) In the post-emerge test, a commercial non-ionic surfactant was also included (0.25% v/v) to enhance wetting of the leaf surfaces of target plants. Immediately after application, test units of the pre-emerge applications were watered at the soil surface to incorporate the test materials. Subsequently, these test units were bottom-watered. Post-emerge test units were always bottom-watered.
(§5) At 14 days after application of the test materials, phytotoxicity ratings were recorded. A rating scale of 0-100 was used as previously described in Research Methods in Weed Science, 2nd edition, B. Truelove, Ed., Southern Weed Science Society, Auburn University, Auburn, Ala., 1977. Briefly, “0” corresponds to no damage and “100” corresponds to complete death of all plants in the test unit. This scale was used both to determine efficacy against weed species and damage to crop species. Herbicide activity data for various compounds of this invention, which are shown by compound No. in Tables I-VI, are shown in Tables VIII-IX.

[2] = system: upland rice (Oryza sp., var.Tebonnet, RICE); assay: as above
Description: as §1, §2, §3, §4, §5

[3] = system: field corn (Zea mays L., var. Dekalb 535, CORN); assay: Pre-emerge greenhouse screening, crop safety (phytotoxicity rating)
Description: as §1, §2, §3, §4, §5

[4] = system: soybean (Glycine max L., var. Pella 86, SOY); assay: as above
Description: as §1, §2, §3, §4, §5

[5] = system: upland rice (Oryza sp., var.Tebonnet, RICE); assay: as above
Description: as §1, §2, §3, §4, §5

[6] = system: ivyleaf morningglory (Ipomoea hederacea, IPOHE); assay: Pre-emerge greenhouse herbicide activity screening, phytotoxicity rating
Description: as §1, §2, §3, §4, §5

[7] = system: redroot pigweed (Amaranthus retroflexus, AMARE); assay: as above
Description: as §1, §2, §3, §4, §5

[8] = system: sicklepod (Cassia obtusifolia, CASOB); assay: as above
Description: as §1, §2, §3, §4, §5

[9] = system: large crabgrass (Digitaria sanguinalis, DIGSA); assay: as above
Description: as §1, §2, §3, §4, §5

[10] = system: barnyardgrass (Echinochloa crus-galli, ECHCG); assay: as above
Description: as §1, §2, §3, §4, §5

[11] = system: lambsquarters (Chenopodium album, CHEAL); assay: as above
Description: as §1, §2, §3, §4, §5

[12] = system: velvetleaf (Abutilon theophrasti, ABUTH); assay: as above
Description: as §1, §2, §3, §4, §5

[13] = system: common ragweed (Ambrosia artemisiifolia L., AMBEL); assay: as above
Description: as §1, §2, §3, §4, §5

[14] = system: green foxtail (Setaria viridis, SETVI); assay: as above
Description: as §1, §2, §3, §4, §5

[15] = system: johnsongrass (Sorghum halepense, SORHA); assay: as above
Description: as §1, §2, §3, §4, §5

[16] = system: field corn (Zea mays L., var. Dekalb 535, CORN); assay: Post-emerge greenhouse screening, crop safety / corn selectivity (phytotoxicity rating)
Description: as §1, §2, §3, §4, §5

[17] = system: ivyleaf morningglory (Ipomoea hederacea, IPOHE); assay: Post-emerge greenhouse herbicide activity screening, phytotoxicity rating
Description: as §1, §2, §3, §4, §5

[18] = system: redroot pigweed (Amaranthus retroflexus, AMARE); assay: as above
Description: as §1, §2, §3, §4, §5

[19] = system: sicklepod (Cassia obtusifolia, CASOB); assay: as above
Description: as §1, §2, §3, §4, §5

[20] = system: large crabgrass (Digitaria sanguinalis, DIGSA); assay: as above
Description: as §1, §2, §3, §4, §5

[21] = system: barnyardgrass (Echinochloa crus-galli, ECHCG); assay: as above
Description: as §1, §2, §3, §4, §5

[22] = system: lambsquarters (Chenopodium album, CHEAL); assay: as above
Description: as §1, §2, §3, §4, §5

[23] = system: velvetleaf (Abutilon theophrasti, ABUTH); assay: as above
Description: as §1, §2, §3, §4, §5

[24] = system: common ragweed (Ambrosia artemisiifolia L., AMBEL); assay: as above
Description: as §1, §2, §3, §4, §5

[25] = system: green foxtail (Setaria viridis, SETVI); assay: as above
Description: as §1, §2, §3, §4, §5

[26] = system: johnsongrass (Sorghum halepense, SORHA); assay: as above
Description: as §1, §2, §3, §4, §5

Cn1c(=S)n(C)c(=O)n(-c2cc(Oc3ccccc3)c(Cl)cc2F)c1=O [Compound 2-16]
70: CHEAL phytotoxicity rating (0-100 scale) ([22]; 125 g ai/ha) | CHEAL phytotoxicity rating (0-100 scale) ([22]; 250 g ai/ha)
35: CASOB phytotoxicity rating (0-100 scale) ([8]; 250 g ai/ha) | ECHCG phytotoxicity rating (0-100 scale) ([10]; 125 g ai/ha) | SORHA phytotoxicity rating (0-100 scale) ([15]; 125 g ai/ha) | ECHCG phytotoxicity rating (0-100 scale) ([21]; 250 g ai/ha)
10: IPOHE phytotoxicity rating (0-100 scale) ([6]; 250 g ai/ha)
100: AMARE phytotoxicity rating (0-100 scale) ([7]; 250 g ai/ha) | CHEAL phytotoxicity rating (0-100 scale) ([11]; 125 g ai/ha) | CHEAL phytotoxicity rating (0-100 scale) ([11]; 250 g ai/ha)
5: CORN crop damage, phytotoxicity rating (0-100 scale) ([3]; 250 g ai/ha)
20: CASOB phytotoxicity rating (0-100 scale) ([8]; 125 g ai/ha)
75: DIGSA phytotoxicity rating (0-100 scale) ([9]; 125 g ai/ha) | SORHA phytotoxicity rating (0-100 scale) ([15]; 250 g ai/ha)
99: AMARE phytotoxicity rating (0-100 scale) ([7]; 125 g ai/ha)
40: ABUTH phytotoxicity rating (0-100 scale) ([23]; 250 g ai/ha)
55: ABUTH phytotoxicity rating (0-100 scale) ([12]; 125 g ai/ha) | AMBEL phytotoxicity rating (0-100 scale) ([13]; 250 g ai/ha)
80: DIGSA phytotoxicity rating (0-100 scale) ([9]; 250 g ai/ha) | AMARE phytotoxicity rating (0-100 scale) ([18]; 125 g ai/ha) | AMARE phytotoxicity rating (0-100 scale) ([18]; 250 g ai/ha)
50: AMBEL phytotoxicity rating (0-100 scale) ([13]; 125 g ai/ha) | SETVI phytotoxicity rating (0-100 scale) ([25]; 125 g ai/ha) | SETVI phytotoxicity rating (0-100 scale) ([25]; 250 g ai/ha)
95: SETVI phytotoxicity rating (0-100 scale) ([14]; 250 g ai/ha)
0: SOY crop damage, phytotoxicity rating (0-100 scale) ([1]; 125 g ai/ha) | SOY crop damage, phytotoxicity rating (0-100 scale) ([1]; 250 g ai/ha) | RICE crop damage, phytotoxicity rating (0-100 scale) ([2]; 125 g ai/ha) | RICE crop damage, phytotoxicity rating (0-100 scale) ([2]; 250 g ai/ha) | CORN crop damage, phytotoxicity rating (0-100 scale) ([3]; 125 g ai/ha) | SOY crop damage, phytotoxicity rating (0-100 scale) ([4]; 125 g ai/ha) | SOY crop damage, phytotoxicity rating (0-100 scale) ([4]; 250 g ai/ha) | RICE crop damage, phytotoxicity rating (0-100 scale) ([5]; 125 g ai/ha) | RICE crop damage, phytotoxicity rating (0-100 scale) ([5]; 250 g ai/ha) | IPOHE phytotoxicity rating (0-100 scale) ([6]; 125 g ai/ha) | CORN crop damage, phytotoxicity rating (0-100 scale) ([16]; 125 g ai/ha) | CORN crop damage, phytotoxicity rating (0-100 scale) ([16]; 250 g ai/ha) | IPOHE phytotoxicity rating (0-100 scale) ([17]; 125 g ai/ha) | IPOHE phytotoxicity rating (0-100 scale) ([17]; 250 g ai/ha) | CASOB phytotoxicity rating (0-100 scale) ([19]; 125 g ai/ha) | CASOB phytotoxicity rating (0-100 scale) ([19]; 250 g ai/ha) | DIGSA phytotoxicity rating (0-100 scale) ([20]; 125 g ai/ha) | DIGSA phytotoxicity rating (0-100 scale) ([20]; 250 g ai/ha) | ECHCG phytotoxicity rating (0-100 scale) ([21]; 125 g ai/ha) | ABUTH phytotoxicity rating (0-100 scale) ([23]; 125 g ai/ha) | AMBEL phytotoxicity rating (0-100 scale) ([24]; 125 g ai/ha) | AMBEL phytotoxicity rating (0-100 scale) ([24]; 250 g ai/ha) | SORHA phytotoxicity rating (0-100 scale) ([26]; 125 g ai/ha) | SORHA phytotoxicity rating (0-100 scale) ([26]; 250 g ai/ha)
60: ECHCG phytotoxicity rating (0-100 scale) ([10]; 250 g ai/ha) | ABUTH phytotoxicity rating (0-100 scale) ([12]; 250 g ai/ha) | SETVI phytotoxicity rating (0-100 scale) ([14]; 125 g ai/ha)
